Results as given in patent US8455450B2, “Methods for obtaining a therapeutically effective amount of hematopoietic precursor cells and long term engraftment thereof” (Biokine Therapeutics Ltd., priority 2006, dated 2013).
Bridge positions count the residues as written; N and C are the ends. Square brackets hold non-standard residues; d marks the D form. Peptide text beside a SMILES is read from it. * marks the point of attachment. 2Nal = N[C@@H](Cc1ccc2ccccc2c1)C(=O)O; Benzoyl(4-F) = O=C(c1ccc(F)cc1)*; Cit = NC(=O)NCCC[C@H](N)C(=O)O

Legend:
[1] = test system: BM cells on stromal cells (14F1.1); test: In vitro production of progenitors and mature cells from BM cells seeded on stromal cells (14F1.1); format: cell-based
Description: More specifically, the number of colonies was assayed by collecting the cells (10^5/plate) 4 days after treatment form the treated and control (untreated) plates, and evaluating the number of progenitor cells using a colony-forming cell assay. Burst forming units erythrocyte (BFU-E), colony forming units granulocyte-macrophage (CFU-GM), colony forming units megakaryocytes (CFU-M), and colony forming units granulocyte-erythrocyte-monocyte-macrophage (CFU-GEMM) were assayed by plating the cells in Iscove's-modified Dulbecco's Medium (IMDM) containing 1% methylcellulose, 15% FBS, 1% bovine serum albumin (BSA), 3 U/mL rh EPO, […] 2-mercaptoethanol, 2 mM L-glutamine, 50 ng/mL rmSCF, 10 ng/mL rmIL-3, […] rh Insulin, 10 ng/mL rh IL-6, and […] Human Transferrin (Methocult GF M3434; StemCell Technologies Inc.). The cultures were incubated at 37° C. in a humidified atmosphere containing 5% CO2. Seven days later, typical colonies were visually scored by morphologic criteria using a light microscope and the frequency of CFU was calculated. Staining colonies with benzidine dihydrochloride (Sigma, Israel) was used to localize hemoglobin-containing cells.

[2] = test system: proerythroblast cells; test: Proerythroblasts in blood, FACS with anti-Ter-119; format: in vivo, C57BL/6 mice; conditions: 5 mg/kg s.c.; 2 hours
Description: To assess the number of cells in blood and BM, and to distinguish between the different populations, FACScan flow cytometer was used. Cells derived from these organs were gated according to forward scatter and side scatter to exclude dead cells and to determine granulocytes, mononuclear cells and activated macrophage populations. The number of each cell population was counted. Cells were also stained in 0.1 ml FACS buffer with fluorescence antibodies directed against Gr-1, CD3, mac-1, F4/80, Nk1.1, B220 and Ter-119 molecules or matched isotype controls (all from eBiosience, San Diego, Calif.) for 30 min and washed with FACS buffer.
C57BL/6 mice were s.c. injected with 5 mg/kg 4F-benzoyl-TN14003. 2 hours later blood was obtained and the number of proerythroblast cells was evaluated by FACS following staining with anti-Ter-119 (FITC). Data are expressed as average±SD of five mice/group.

[3] = test system: hematopoietic progenitor cells (HPCs); test: Mobilization of hematopoietic progenitor cells to the blood, colony-forming cell assay; format: in vivo, C57BL/6 mice
[4] = test system: progenitor cells; test: In vitro production of colonies, colony-forming cell assay without stromal cells; format: cell-based; conditions: no stromal cells; 4F-benzoyl-TN14003 10-500 ng/ml, G-CSF 10-500 ng/ml
Description: In order to evaluate the number of progenitor cells, a colony-forming cell assay was used. Burst forming units erythrocyte (BFU-E), colony forming units granulocyte-macrophage (CFU-GM), colony forming units megakaryocytes (CFU-M), and colony forming units granulocyte-erythrocyte-monocyte-macrophage (CFU-GEMM) were assayed by plating the cells (10^5/ml) in Iscove's-modified Dulbecco's Medium (IMDM) containing 1% methylcellulose, 15% FBS, 1% bovine serum albumin (BSA), and 4F-benzoyl-TN14003 by itself (10-500 ng/ml) or in combination with G-CSF (in concentrations of 10-500 ng/ml).

[5] = test system: neutrophils; test: Chemotherapy (cyclophosphamide)-induced neutropenia model, neutrophil counts; format: in vivo, C57BL/6 mice; conditions: cyclophosphamide 150 + 100 mg/kg i.p. days 1 and 4, treatment s.c. days 4-7 (4F-benzoyl-TN14003 5 mg/kg)
Description: In the chemotherapy-induced neutropenia model, a protocol as previously described was followed (Zuluaga et al., 2006). Briefly, Female C57BL/6 mice were injected intraperitoneally with 150 and 100 mg/kg of Cyclophosphamide (CPM) on days 1 and 4, respectively. Following the treatment with CPM, mice were injected s.c. with either G-CSF […], 4F-benzoyl-TN14003 (5 mg/kg) or their combination on day 4, 5, 6 and 7. Blood samples were drawn from each mouse on day 0 and two hours after G-CSF/4F-benzoyl-TN14003 injections on days 4, 5, 6 and 7. Lysis of the erythrocyte population in the blood samples was done using ACK lysis buffer. The number of neutrophils was determined by FACS after staining the cells with anti-PE-Gr-1 antibody.
Neutropenia was induced in female C57BL/6 mice by administration of a total dose of 250 mg/kg cyclophosphamide (CPM) in two 0.5 mL intraperitoneal injections scheduled at day 1 (150 mg/kg) and day 4 (100 mg/kg). The CPM protocol caused 4 days of neutropenia (from day 4 to day 8). When mice were treated with the combination of G-CSF and 4F-benzoyl-TN14003, a significant number of neutrophils was detected in the blood on day 6, as compared to mice that were treated with CPM only or with G-CSF or 4F-benzoyl-TN14003 alone (FIG. 12).

[6] = test system: PC3 cells; test: MIP3α secretion by PC3 prostate cells (ELISA); format: cell-based
From the text: A PC3 prostate cell line that overexpresses high levels of CXCR4 was generated. […] FIG. 1A presents FACS histograms of PC3 cells (left panel) and a single cell clone with stable overexpression of CXCR4, GFP and luc genes (PC3-CXCR4.5, right panel) that were stained for the control (IgG2a-PE, full histograms) and CXCR4 (IgG2a-12G5, empty histograms) antibodies.
In this example, regulation of the chemokine MIP3α (macrophage inflammatory protein 3α) was examined. […] In FIG. 1B, PC3 (left panel) and PC3-CXCR4.5 (right panel) cells were stimulated with the indicated concentrations of CXCL12 for 48 hours and MIP3α secretion was assessed by ELISA. The results represent the average of triplicates±STDEV.
The effects of the CXCR4 antagonist AMD3100 and of 4F-benzoyl-TN14003 (4FB-TN14003), hitherto known as a CXCR4 antagonist, on MIP3α secretion were further tested. […] In FIG. 10, CXCR4 signaling in PC3 (left panel) and PC3-CXCR4.5 (right panel) cells was inhibited with anti-CXCL12 antibodies (αCXCL12) and Pertussis toxin (PTX) treatments alone or in combination with CXCL12, as indicated. Secretion of MIP3α was assessed by ELISA. The results represent the average of triplicates±STDEV.

[7] = 5 mg/kg s.c. 4F-benzoyl-TN14003 or AMD3100, 2 h, G-CSF 2.5 μg s.c. twice a day for 4 days, combination 18 h after last G-CSF
[8] = peak at 5 and 10 mg/kg s.c., 2 h

Compound: N=C(N)NCCC[C@H](NC(=O)[C@@H]1CSSC[C@H](NC(=O)[C@H](Cc2ccc3ccccc3c2)NC(=O)[C@H](CCCNC(=N)N)NC(=O)[C@H](CCCNC(=N)N)NC(=O)c2ccc(F)cc2)C(=O)N[C@@H](Cc2ccc(O)cc2)C(=O)N[C@@H](CCCNC(N)=O)C(=O)N[C@@H](CCCCN)C(=O)N[C@H](CCCCN)C(=O)N2CCC[C@H]2C(=O)N[C@@H](Cc2ccc(O)cc2)C(=O)N[C@@H](CCCNC(=N)N)C(=O)N[C@@H](CCCNC(N)=O)C(=O)N1)C(N)=O [4F-benzoyl-TN14003, 4F-benzoly-Arg-Arg-Nal-Cys-Tyr-Cit-Lys-DLys-Pro-Tyr-Arg-Cit-Cys-Arg-NH2] ({Benzoyl(4-F)}-RR[2Nal]CY[Cit]K[dK]PYR[Cit]CR-NH2; disulfide 4-13)
- differentiation and proliferation of BM cells on stromal cells (micrographs) ([1]; representative experiment, FIG. 17E): differentiating and proliferating
- production of GR-1 and Ter119 positive cells and progenitors ([1]; stromal cells (14F1.1) seeded with BM cells, 4F-benzoyl-TN14003 10 microgram/ml, G-CSF 100 ng/ml, 4 days): stimulated the production of GR-1 and Ter119 positive cells as well as progenitors
- number of proerythroblasts (Ter119) in blood, fold elevation from the control level [2]: 3.2 fold
- BFU-E in blood, fold elevation of cell counts from control [3, 7]: 26 fold
- CFU-GEMM in blood, fold elevation of cell counts from control [3, 7]: 44 fold
- Progenitors in blood, fold elevation of cell counts from control [3, 7]: 7.1 fold
- number of progenitor cells per 1 ml of blood, fold change from control ([3]; 5 mg/kg s.c., 30 min): 3.2 fold
- number of progenitor cells per 1 ml of blood, fold change from control ([3]; 5 mg/kg s.c., 1 hour): 9.5 fold
- BFU-E in blood, fold change from control ([3]; 5 mg/kg s.c., 1 h post injection): more than 200 fold
- number of progenitor cells per 1 ml of blood, fold change from control ([3]; 5 mg/kg s.c., 2 hours): 13.6 fold
- CFU-M in blood, fold change ([3]; 5 mg/kg s.c., 4 h): 4 fold
- elevation in the number of progenitor cells in blood ([3]; 5 mg/kg s.c., 24 hours post-injection): almost disappeared
- CFU-GM population in blood, fold elevation from control ([3]; 5 mg/kg s.c., after 2 h): 12.5 fold
- number of BFU-E in blood, fold elevation from the control level ([3]; 5 and 10 mg/kg s.c., 2 h): more than 110 fold
- number of progenitor cells in 1 ml of blood, fold elevation compared to non-treated mice ([3]; 5 or 10 mg/kg s.c., 2 h): ~10 fold
- number of CFU-GEMM in blood, fold elevation from the control level [3, 8]: 2.5 fold
- number of CFU-GM in blood, fold elevation from the control level [3, 8]: 11.8 fold
- number of CFU-M in blood, fold elevation from the control level [3, 8]: 10.4 fold
- production of colonies in vitro [4]: did not stimulate the production of colonies in vitro
- number of neutrophils in blood as % of the initial number in normal (untreated) mice ([5]; day 6): only a mild effect
- number of neutrophils in blood as % of the initial number ([5]; day 7): not sufficient to elevate neutrophil counts to their normal level
- MIP3α secretion [6]: induced in both cell lines MIP3α secretion in an agonist manner
